The record followed here is patent US9353104B2, “Substituted pyridizinone derivatives as PDE10 inhibitors” (priority 2013, dated 2016).

pKi: −log10 of the molar value.

Chain of human PDE10A2 (Q9Y233 267-1055): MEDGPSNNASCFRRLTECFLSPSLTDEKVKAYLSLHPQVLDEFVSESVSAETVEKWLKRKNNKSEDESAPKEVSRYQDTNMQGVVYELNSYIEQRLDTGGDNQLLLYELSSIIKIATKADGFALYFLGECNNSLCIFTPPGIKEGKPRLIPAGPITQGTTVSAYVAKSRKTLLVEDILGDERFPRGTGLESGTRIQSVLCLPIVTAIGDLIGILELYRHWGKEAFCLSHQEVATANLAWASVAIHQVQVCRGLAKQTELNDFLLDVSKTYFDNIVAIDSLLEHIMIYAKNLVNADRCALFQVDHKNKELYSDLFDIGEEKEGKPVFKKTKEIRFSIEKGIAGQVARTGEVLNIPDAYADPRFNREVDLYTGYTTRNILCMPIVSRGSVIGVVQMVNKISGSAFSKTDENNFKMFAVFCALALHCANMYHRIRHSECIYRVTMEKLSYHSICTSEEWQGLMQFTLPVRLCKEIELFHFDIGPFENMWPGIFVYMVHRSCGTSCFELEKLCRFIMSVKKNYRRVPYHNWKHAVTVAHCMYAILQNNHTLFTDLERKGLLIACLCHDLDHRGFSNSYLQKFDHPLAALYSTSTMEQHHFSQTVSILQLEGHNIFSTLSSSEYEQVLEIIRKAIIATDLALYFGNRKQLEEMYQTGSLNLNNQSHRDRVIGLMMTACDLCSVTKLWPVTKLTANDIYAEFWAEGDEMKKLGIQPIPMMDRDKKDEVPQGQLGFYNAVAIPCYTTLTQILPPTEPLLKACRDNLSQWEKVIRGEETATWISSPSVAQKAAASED

The target of the assay is human PDE10A2 (Homo sapiens (Human), UniProt Q9Y233). Put plainly: PDE10 fluorescence polarization (IMAP FP) inhibition assay. Type of assay: biochemical. Conditions: human PDE10A2 lysate, FAM-labeled cAMP 50 nM, room temperature; read-out: PDE10A Ki. Summed up:
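Cytoplasmic lysate of AD293 cells transiently expressing human PDE10A2, diluted for ~20% conversion of 50 nM FAM-cAMP, in 10 mM Tris pH 7.2, 10 mM MgCl2, 1 mM DTT, 0.01% Tween-20. Reaction 30 min at room temperature, read by IMAP fluorescence polarization; 10-point 3-fold titrations, 1% DMSO as 0%, reference PDE10 inhibitor at 5,000× Ki as 100%.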
(In fluorescence polarisation assays a small probe gives low polarisation when free and higher when bound to something large.)
For the compound `COc1ccc([C@H]2C[C@@H]2COc2cc(NCc3cnn(C)c3N(C)C)c(=O)n(C)n2)nc1` [Example 83, 4-(((5-(dimethylamino)-1-methyl-1H-pyrazol-4-yl)methyl)amino)-6-(((1S,2S)-2-(5-methoxypyridin-2-yl)cyclopropyl)methoxy)-2-methylpyridazin-3(2H)-one], the pKi (usually the Ki on a negative log10 scale, so that one unit is a factor of ten) is 7.37.

In the case of `Cc1cnn(C)c1CNc1cc(OC[C@H]2C[C@@H]2c2ccn(C)n2)nn(C)c1=O` [Example 86, 4-(((1,4-dimethyl-1H-pyrazol-5-yl)methyl)amino)-2-methyl-6-(((1S,2S)-2-(1-methyl-1H-pyrazol-3-yl)cyclopropyl)methoxy)-pyridazin-3(2H)-one], the pKi is 8.03.

As for `COc1ccc([C@H]2C[C@@H]2COc2cc(NCc3cc(C)on3)c(=O)n(C)n2)nc1` [Example 87, 6-(((1S,2S)-2-(5-methoxypyridin-2-yl)cyclopropyl)methoxy)-2-methyl-4-(((5-methylisoxazol-3-yl)methyl)amino)pyridazin-3(2H)-one], the negative-log Ki (pKi) was 11.00.

Turning to `COc1ccc([C@H]2C[C@@H]2COc2cc(NCc3nc(C)nn3C)c(=O)n(C)n2)nc1` [Example 88, 4-(((1,3-dimethyl-1H-1,2,4-triazol-5-yl)methyl)amino)-6-(((1S,2S)-2-(5-methoxypyridin-2-yl)cyclopropyl)methoxy)-2-methylpyridazin-3(2H)-one], the negative-log Ki (pKi) is 8.55.

Consider `COc1ccc([C@H]2C[C@@H]2COc2cc(NCc3cc(C)no3)c(=O)n(C)n2)nc1` [Example 89, 6-(((1S,2S)-2-(5-methoxypyridin-2-yl)cyclopropyl)methoxy)-2-methyl-4-(((3-methylisoxazol-5-yl)methyl)amino)pyridazin-3(2H)-one], for which the pKi is 11.10.

Turning to `COc1ccc([C@H]2C[C@@H]2COc2cc(N(Cc3ccc(C)nc3C)Cc3ccc(C)nc3C)c(=O)n(C)n2)nc1` [Example 91, 4-(bis((2,6-dimethylpyridin-3-yl)methyl)amino)-6-(((1S,2S)-2-(5-methoxypyridin-2-yl)cyclopropyl)methoxy)-2-methylpyridazin-3(2H)-one], the pKi is 8.23.

Take `COc1ccc([C@H]2C[C@@H]2COc2cc(NC(=O)c3cnn(C)c3Cl)c(=O)n(C)n2)nc1` [Example 95, 5-chloro-N-(6-(((1S,2S)-2-(5-methoxypyridin-2-yl)-cyclopropyl)methoxy)-2-methyl-3-oxo-2,3-dihydro-pyridazin-4-yl)-1-methyl-1Hpyrazole-4carboxamide]: the pKi was 7.12.

Turning to `COc1ccc([C@H]2C[C@@H]2COc2cc(NCc3cnn(C)c3Cl)c(=O)n(C)n2)nc1` [Example 96, 4-(((5-chloro-1-methyl-1H-pyrazol-4-yl)methyl)-amino)-6-(((1S,2S)-2-(5-methoxypyridin-2-yl)-cyclopropyl)methoxy)-2-methylpyridazin-3(2H)one], the pKi is 8.90.

In the case of `COc1ccc([C@H]2C[C@@H]2COc2cc(NCc3cccc(C)n3)c(=O)n(C)n2)nc1` [Example 97, 6-(((1S,2S)-2-(5-methoxypyridin-2-yl)-cyclopropyl)methoxy)-2-methyl-4-(((6-methyl-pyridin-2-yl)methyl)-amino)pyridazin-3(2H)one], the pKi is 8.57.

Regarding `Cn1ccc([C@H]2C[C@@H]2COc2cc(NCc3ccnn3C)c(=O)n(C)n2)n1` [Example 98, 2-methyl-6-(((1S,2S)-2-(1-methyl-1H-pyrazol-3-yl)cyclopropyl)methoxy)-4-(((1-methyl-1H-pyrazol-5-yl)methyl)amino)-pyridazin-3(2H)-one], the pKi is 8.82.

Turning to `Cc1ccc([C@H]2C[C@@H]2COc2cc(NCc3ccnn3C)c(=O)n(C)n2)nc1` [Example 99, 2-methyl-4-(((1-methyl-1H-pyrazol-5-yl)methyl-)amino)-6-(((1S,2S)-2-(5-methylpyridin-2-yl)cyclo-propyl)methoxy)pyridazin-3(2H)-one], the pKi was 9.86.

Take `COc1ccc([C@H]2C[C@@H]2COc2cc(NCc3ccnn3C)c(=O)n(C)n2)nc1` [Example 100, 6-(((1S,2S)-2-(5-methoxypyridin-2-yl)-cyclopropyl)methoxy)-2-methyl-4-(((1-methyl-1H-pyrazol-5-yl)methyl)-amino)pyridazin-3(2H)one]: the pKi was 9.72.

`COc1ccc([C@H]2C[C@@H]2COc2cc(NC(=O)c3cc(C)nn3C)c(=O)n(C)n2)nc1` [Example 101, N-(6-(((1S,2S)-2-(5-methoxypyridin-2-yl)-cyclopropyl)methoxy)-2-methyl-3-oxo-2,3-dihydropyridazin-4-yl)-1,3-dimethyl-1H-pyrazole-5-carboxamide]: the negative-log Ki (pKi) was 7.12.

For `Cc1ccc([C@H]2C[C@@H]2COc2cc(NC(=O)c3cc(C)nn3C)c(=O)n(C)n2)nc1` [Example 102, 1,3-dimethyl-N-(2-methyl-6-(((1S,2S)-2-(5-methyl-pyridin-2-yl)cyclopropyl-)methoxy)-3-oxo-2,3-dihydropyridazin-4-yl)-1H-pyrazole-5-carboxamide], the negative logarithm of the Ki (pKi) is 7.29.

Turning to `Cc1cc(C(=O)Nc2cc(OC[C@H]3C[C@@H]3c3ccn(C)n3)nn(C)c2=O)n(C)n1` [Example 103, 1,3-dimethyl-N-(2-methyl-6-(((1S,2S)-2-(1-methyl-1H-pyrazol-3-yl)cyclopropyl)methoxy)-3-oxo-2,3-dihydropyridazin-4-yl)-1H-pyrazole-5-carboxamide], the pKi was 7.12.

For `Cc1ccc([C@H]2C[C@@H]2COc2cc(NCc3cn(C)nc3C(F)(F)F)c(=O)n(C)n2)nc1` [Example 104, 2-methyl-4-(((1-methyl-3-(trifluoromethyl)-1H-pyrazol-4-yl)methyl)-amino)-6-(((1S,2S)-2-(5-methylpyridin-2-yl)cyclo-propyl)methoxy)pyridazin-3(2H)-one], the pKi was 10.25.

Turning to `COc1ccc([C@H]2C[C@@H]2COc2cc(NCc3cc(C)ccn3)c(=O)n(C)n2)nc1` [Example 105, 6-(((1S,2S)-2-(5-methoxy-pyridin-2-yl)cyclopropyl-)methoxy)-2-methyl-4-(((-4-methylpyridin-2-yl)-methyl)amino)pyridazin-3(2H)-one], the pKi is 9.56.

`CCn1ccc(CNc2cc(OC[C@H]3C[C@@H]3c3ccc(OC)cn3)nn(C)c2=O)n1` [Example 106, 4-(((1-ethyl-1H-pyrazol-3-yl)methyl)amino)-6-(((-1S,2S)-2-(5-methoxy-pyridin-2-yl)cyclopropyl-)methoxy)-2-methyl-pyridazin-3(2H)-one]: the pKi is 8.23.

With `Cc1ncc(CNc2cc(OC[C@H]3C[C@@H]3c3nn(C)c4ccccc34)nn(C)c2=O)s1` [Example 109, 2-methyl-6-(((1S,2S)-2-(1-methyl-1H-indazol-3-yl)cyclopropyl)methoxy)-4-((2-methylthiazol-5-yl)methylamino)pyridazin-3(2H)-one], the pKi is 8.67.

For `Cc1ncc(CNc2cc(OC[C@@H]3C[C@H]3c3nn(C)c4ccccc34)nn(C)c2=O)s1` [Example 110, 2-methyl-6-(((1R,2R)-2-(1-methyl-1H-indazol-3-yl)cyclopropyl)methoxy)-4-((2-methylthiazol-5-yl)methylamino)pyridazin-3(2H)-one], the pKi is 10.11.

Regarding `Cn1cc(CNc2cc(OC[C@H]3C[C@@H]3c3nn(C)c4ccccc34)nn(C)c2=O)cn1` [Example 111, 2-methyl-6-(((1S,2S)-2-(1-methyl-1H-indazol-3-yl)cyclopropyl)methoxy)-4-((1-methyl-1H-pyrazol-4-yl)methylamino)-pyridazin-3(2H)-one], the pKi was 8.72.

For `Cc1cnc(CNc2cc(OC[C@H]3C[C@@H]3c3nn(C)c4ccccc34)nn(C)c2=O)s1` [Example 112, 2-methyl-6-(((1S,2S)-2-(1-methyl-1H-indazol-3-yl)cyclopropyl)methoxy)-4-((5-methylthiazol-2-yl)methylamino)pyridazin-3(2H)-one], the pKi was 8.85.

For the compound `Cn1cc(CNc2cc(OC[C@@H]3C[C@H]3c3nn(C)c4ccccc34)nn(C)c2=O)cn1` [Example 113, 2-methyl-6-(((1R,2R)-2-(1-methyl-1H-indazol-3-yl)cyclopropyl)methoxy)-4-((1-methyl-1H-pyrazol-4-yl)methylamino) pyridazin-3(2H)-one], the pKi is 9.71.

As to `Cc1cnc(CNc2cc(OC[C@@H]3C[C@H]3c3nn(C)c4ccccc34)nn(C)c2=O)s1` [Example 114, 2-methyl-6-(((1R,2R)-2-(1-methyl-1H-indazol-3-yl)cyclopropyl)methoxy)-4-((5-methylthiazol-2-yl)methylamino)pyridazin-3(2H)-one], the pKi is 9.93.

`Cc1cccc([C@H]2C[C@@H]2COc2cc(NCc3nnc(C)s3)c(=O)n(C)n2)n1` [Example 115, 2-methyl-4-((5-methyl-1,3,4-thiadiazol-2-yl)methylamino)-6-(((1S,2S)-2-(6-methylpyridin-2-yl)cyclopropyl)methoxy) pyridazin-3(2H)-one]: the pKi is 10.48.

For the compound `Cc1cccc([C@H]2C[C@@H]2COc2cc(NCc3cc(C)nn3C)c(=O)n(C)n2)n1` [Example 116, 4-((1,3-dimethyl-1H-pyrazol-5-yl)methylamino)-2-methyl-6-(((1S,2S)-2-(6-methylpyridin-2-yl)cyclopropyl)methoxy) pyridazin-3(2H)-one], the pKi was 11.30.

For `Cc1cccc([C@H]2C[C@@H]2COc2cc(NCc3cnn(C)c3)c(=O)n(C)n2)n1` [Example 117, 2-methyl-4-((1-methyl-1H-pyrazol-4-yl)methyl-amino)-6-(((1S,2S)-2-(6-methylpyridin-2-yl)cyclopropyl)methoxy) pyridazin-3(2H)-one], the pKi was 10.05.

In the case of `Cc1cccc([C@H]2C[C@@H]2COc2cc(NCc3ncc(C)s3)c(=O)n(C)n2)n1` [Example 118, 2-methyl-6-(((1S,2S)-2-(6-methylpyridin-2-yl)cyclo-propyl)methoxy)-4-((5-methylthiazol-2-yl)methyl-amino)pyridazin-3(2H)one], the negative logarithm of the Ki (pKi) was 10.43.
